{
  "source": "patent US12458622B2",
  "about": "“Methods of treatment of coronavirus-induced inflammation conditions” (priority 2020, dated 2025)",
  "key": {"BV2 microglial cells": {"system": "BV2 microglial cells", "test": "Aβ42 uptake, confocal microscopy and ELISA", "assay_type": "cell-based", "settings": "naive BV2 cells, 16 hours pretreatment then 2 hours with Aβ42, vs DMSO", "protocol": "After incubation, the cells were labeled with a plasma membrane dye (PM, green) and imaged."}, "Squirrel Monkeys": {"system": "Squirrel Monkeys", "settings": "6 months, cited from earlier work"}, "Dog": {"system": "Dog", "settings": "cited from earlier work"}, "Rhesus Monkeys": {"system": "Rhesus Monkeys", "settings": "daily IV dosing at 0, 2, 10 and 50 mg/kg, 6 months; cited from earlier work"}, "Wistar Rats": {"system": "Wistar Rats", "settings": "4% cromolyn 0, 4, 8, 16 mg/day, 3 month; cited from earlier work"}, "[1]": {"settings": "cited from earlier work"}, "Rabbit": {"system": "Rabbit", "settings": "Oral; cited from earlier work"}, "[2]": {"system": "BV2 cells stably expressing CD33 (BV2-CD33WT)", "test": "Aβ42 uptake, ELISA", "assay_type": "cell-based", "settings": "16 hours pretreatment then 2 hours with Aβ42, vs DMSO"}, "APP/PS1 mice": {"system": "APP/PS1 mice", "test": "Recruitment of microglial cells around amyloid plaques", "settings": "mouse, in vivo"}, "Stump-tailed Monkeys [3]": {"system": "Stump-tailed Monkeys", "settings": "20 mg cromolyn and lactose capsules, 4, 16 and 72 capsules/day, 17 weeks; cited from earlier work"}, "[4]": {"system": "HMC3 human microglia cells", "test": "MSD U-PLEX cytokine secretion induced by TNF-α", "assay_type": "cell-based", "settings": "TNF-α induced, 24 hr; for inhibition at 3 µM: Homo sapiens, HMC3", "protocol": "Human microglial cell line HMC3 (CRL-3304) was purchased from ATCC (American Type Culture Collection). HMC3 cell line was cultured in DMEM medium with 10% FBS, 1% L-glutamine, and 1% penicillin/streptomycin. Cells were maintained in 37° C. incubator at 5% CO2.\nHMC3 cells were resuspended, counted using the LUNA-II Automated Cell Counter, seeded in the 6-well plate (400 K cells/2 mL medium/well), and incubated overnight to allow cells to attach. The media and detached cells were removed next day. The cell layer was washed three times in PBS and once in serum- and phenolred-free DMEM (SPFM). […] The conditioned medium was collected and centrifuged at 1,000×RCF (g) for 5 min to pellet detached cells and large debris, which was subsequently passed through a 0.22 μm filter with PVDF membrane to remove smaller debris. Samples of the supernatant medium were put in a CoolRack (#07210041, Fisher Scientific) on dry ice for Snap-freezing and kept at −80° C. until use.\nMeso-scale U-PLEX plates that detect a cytokine panel including IL-1β, IL-2, IL-4, IL-6, IL-8, IL-10, IFN-γ, TNF-α, and a chemokine panel including IP-10/CXCL10, MCP-1/CCL2, MIP-1α/CCL3, MIP-1P/CCL4, Eotaxin/CCL11, were used as per manufacture's protocol. 25 μL of the conditioned medium was used in each well of the MSD plates to detect the analytes. The plates were then analyzed on an MSD QuickPlex SQ120 instrument.\nAll the data were presented as mean±standard error from at least three times, each done in triplicate. The statistical significance between two groups was determined by Student's t test, whereas the comparisons of multiple groups were carried out by one-way ANOVA, followed by Bonferroni's post-test using GraphPad Prism 7 (GraphPad Software, Inc.). A probability value of * p<0.05 was considered to be significant."}, "pH of solution in saline": {"test": "pH of solution in saline", "assay_type": "physicochemical", "settings": "25 mg in 25 ml of saline", "protocol": "In some embodiments, the compounds of the invention are provided as part of a kit for infusion. The kit contains from about 25 mg to about 250 mg of the compound of Formula I or II in a volume of buffer or saline from about 25 ml to about 250 ml. The pH of saline or buffer pH ranges from about 5.8 to about 6.8. […] Alternatively, the buffer can be Ringer's lactate (pH 6.5). Alternatively yet, the buffer can be citrate buffer (pH 6.0)."}, "Stump-tailed Monkeys [5]": {"system": "Stump-tailed Monkeys", "settings": "cited from earlier work"}, "Rat": {"system": "Rat", "settings": "cited from earlier work"}},
  "note": "Like-named read-outs stand apart in the source and are kept apart here.",
  "data": [
    {"compound": "O=C(O)c1cc(=O)c2c(OCC(O)COc3cccc4oc(C(=O)O)cc(=O)c34)cccc2o1", "note": "[cromolyn]", "values": [
      {"measurement": "Aβ42 uptake", "setting": "BV2 microglial cells", "result": "increased Aβ42 uptake"},
      {"measurement": "Ill health, general toxicity, or nasal irritation", "setting": "Squirrel Monkeys; 2% cromolyn 0, 2, 6, 12 mg/day", "result": "No signs of ill health,"},
      {"measurement": "Ill health, general toxicity, or nasal irritation", "setting": "Squirrel Monkeys; 4% cromolyn 0, 5, 16, 32 mg/day", "result": "No signs of ill health,"},
      {"measurement": "LD50 Value", "setting": "Dog; IV", "result": ">1600", "unit": "mg/kg"},
      {"measurement": "LD50 Value", "setting": "Dog; Oral", "result": ">4", "unit": "gm/kg"},
      {"measurement": "Body weight, observations, clinical laboratory results, organ weights, gross and microscopic pathology", "setting": "Rhesus Monkeys", "result": "within normal limits and"},
      {"measurement": "General toxicity", "setting": "Wistar Rats", "result": "No general toxic effects."},
      {"measurement": "Adverse effects in repeat dose studies", "setting": "[1]; all routes of administration", "result": "No adverse effects"},
      {"measurement": "Renal toxicity", "setting": "[1]; dosing of high concentration, precipitation in the renal tubules", "result": "renal damage was observed"},
      {"measurement": "LD50 Value", "setting": "Rabbit", "result": ">8", "unit": "gm/kg"},
      {"measurement": "Internalized Aβ42", "setting": "[2]", "result": "increased levels of internalized Aβ42"},
      {"measurement": "Recruitment of microglial cells around amyloid plaques", "setting": "APP/PS1 mice", "result": "increased recruitment of microglial cells"},
      {"measurement": "Body weight", "setting": "Stump-tailed Monkeys [3]", "result": "Some weight loss."},
      {"measurement": "IFN-γ concentration", "setting": "[4]; 0.3 μM", "result": "decreased"},
      {"measurement": "IL-1β concentration", "setting": "[4]; 0.3 μM", "result": "decreased"},
      {"measurement": "IL-6 concentration", "setting": "[4]; 0.3 μM", "result": "decreased"},
      {"measurement": "IL-8 concentration", "setting": "[4]; 0.3 μM", "result": "decreased"},
      {"measurement": "inhibition at 3 µM", "setting": "[4]; read-out: inhibition of IFN-γ", "result": "> 40", "unit": "%"},
      {"measurement": "inhibition at 3 µM", "setting": "[4]; read-out: inhibition of IL-1β", "result": "> 40", "unit": "%"},
      {"measurement": "inhibition at 3 µM", "setting": "[4]; read-out: inhibition of IL-6", "result": "> 40", "unit": "%"},
      {"measurement": "inhibition at 3 µM", "setting": "[4]; read-out: inhibition of IL-8", "result": 25.8, "unit": "%"},
      {"measurement": "pH", "setting": "pH of solution in saline", "result": 6.8},
      {"measurement": "Survival until the scheduled necropsy", "setting": "Stump-tailed Monkeys [5]; single IV dose 333 mg/kg, 4 to 10-day observation", "result": "given 333 mg/kg survived"},
      {"measurement": "Clinical signs", "setting": "Stump-tailed Monkeys [5]; single IV dose 5082 mg/kg", "result": "stertorous breathing,"},
      {"measurement": "Time to death of one monkey", "setting": "Stump-tailed Monkeys [5]; single IV dose 5082 mg/kg", "result": "mg/kg died within 4 hours"},
      {"measurement": "LD50 Value", "setting": "Rat; IP", "result": ">4", "unit": "gm/kg"},
      {"measurement": "LD50 Value", "setting": "Rat; IV", "result": ">4", "unit": "gm/kg"},
      {"measurement": "LD50 Value", "setting": "Rat; Oral", "result": ">11", "unit": "gm/kg"},
      {"measurement": "LD50 Value", "setting": "Rat; SC", "result": 6, "unit": "gm/kg"}
    ]}
  ]
}
